Several values for one entry are separate records, joined by “and”; a condition that tells them apart may be missing. Identical values can stand only once. Inconclusive results and toxic doses are left out.
System: BDF1 mice, P388 leukemia ip, median survival T/C
Assay: NCI In Vivo Anticancer Drug Screen. Data for tumor model P388 Leukemia (intraperitoneal) in B6D2F1 (BDF1) mice
Settings: endpoint: median survival time, higher = longer survival
Outline: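 Compound-treated tumour-bearing mice were compared with vehicle-treated controls. Survival was recorded, and the value is the treated-group measurement divided by the control-group measurement (T/C).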

[1] = dose: 100.0 mg/kg/injection, schedule: Q01DX009 (ip), vehicle: saline with Tween-80
[2] = dose: 200.0 mg/kg/injection, schedule: Q01DX009 (ip), vehicle: saline with Tween-80
[3] = dose: 400.0 mg/kg/injection, schedule: Q01DX009 (ip), vehicle: saline with Tween-80

CCCCS(=N)(=O)CC[C@H](N)C(=O)O (stereo partly drawn)
T/C (dose: 50.0 mg/kg/injection, schedule: Q01DX005 (ip), vehicle: saline): 96 % of control | T/C (dose: 100.0 mg/kg/injection, schedule: Q01DX005 (ip), vehicle: saline): 96 % of control | T/C (dose: 200.0 mg/kg/injection, schedule: Q01DX005 (ip), vehicle: saline): 91 % of control | T/C (dose: 400.0 mg/kg/injection, schedule: Q01DX005 (ip), vehicle: saline): 91 % of control

CCN/C(C)=C\C(=O)OCC
T/C (dose: 50.0 mg/kg/injection, schedule: Q01DX009 (ip), vehicle: saline with Tween-80): 95 % of control | T/C (dose: 100.0 mg/kg/injection, schedule: Q01DX009 (ip), vehicle: Klucel (hydroxypropylcellulose) (HPC)): 122 % of control | T/C [1]: 100 % of control | T/C (dose: 100.0 mg/kg/injection, schedule: Q04DX003 (ip), vehicle: Klucel (hydroxypropylcellulose) (HPC)): 100 % of control | T/C (dose: 200.0 mg/kg/injection, schedule: Q01DX009 (ip), vehicle: Klucel (hydroxypropylcellulose) (HPC)): 111 % of control | T/C [2]: 117 % of control | T/C (dose: 200.0 mg/kg/injection, schedule: Q04DX003 (ip), vehicle: Klucel (hydroxypropylcellulose) (HPC)): 100 % of control | T/C (dose: 266.0 mg/kg/injection, schedule: Q01DX009 (ip), vehicle: Klucel (hydroxypropylcellulose) (HPC)): 99 % of control | T/C (dose: 400.0 mg/kg/injection, schedule: Q01DX009 (ip), vehicle: Klucel (hydroxypropylcellulose) (HPC)): 99 % of control | T/C [3]: 111 % of control | T/C (dose: 400.0 mg/kg/injection, schedule: Q04DX003 (ip), vehicle: Klucel (hydroxypropylcellulose) (HPC)): 100 % of control

C[C@@H]1C[C@@H]([C@H](O)CC2CC(=O)NC(=O)C2)C(=O)[C@@H](C)C1
T/C (dose: 5.0 mg/kg/injection, schedule: Q01DX010 (ip), vehicle: saline): 100 % of control and 104 % of control | T/C (dose: 10.0 mg/kg/injection, schedule: Q01DX010 (ip), vehicle: saline): 90 % of control and 114 % of control | T/C (dose: 15.0 mg/kg/injection, schedule: Q01DX009 (ip), vehicle: Klucel (hydroxypropylcellulose) (HPC)): 100 % of control | T/C (dose: 20.0 mg/kg/injection, schedule: Q01DX010 (ip), vehicle: saline): 100 % of control (2×) and 119 % of control | T/C (dose: 30.0 mg/kg/injection, schedule: Q01DX009 (ip), vehicle: Klucel (hydroxypropylcellulose) (HPC)): 90 % of control | T/C (dose: 39.9 mg/kg/injection, schedule: Q04DX003 (ip), vehicle: Klucel (hydroxypropylcellulose) (HPC)): 114 % of control | T/C (dose: 39.9 mg/kg/injection, schedule: Q04DX003 (sc), vehicle: Klucel (hydroxypropylcellulose) (HPC)): 110 % of control | T/C (dose: 40.0 mg/kg/injection, schedule: Q01DX010 (ip), vehicle: saline): 115 % of control and 118 % of control | T/C (dose: 50.0 mg/kg/injection, schedule: Q04DX003 (ip), vehicle: other): 121 % of control | T/C (dose: 60.0 mg/kg/injection, schedule: Q01DX009 (ip), vehicle: Klucel (hydroxypropylcellulose) (HPC)): 90 % of control | T/C (dose: 60.0 mg/kg/injection, schedule: Q01DX010 (ip), vehicle: saline): 168 % of control | T/C (dose: 60.0 mg/kg/injection, schedule: Q04DX003 (ip), vehicle: Klucel (hydroxypropylcellulose) (HPC)): 118 % of control | T/C (dose: 64.8 mg/kg/injection, schedule: Q01DX001 (sc), vehicle: Klucel (hydroxypropylcellulose) (HPC)): 108 % of control | T/C (dose: 64.8 mg/kg/injection, schedule: Q04DX003 (ip), vehicle: Klucel (hydroxypropylcellulose) (HPC)): 119 % of control | T/C (dose: 64.8 mg/kg/injection, schedule: Q04DX003 (sc), vehicle: Klucel (hydroxypropylcellulose) (HPC)): 107 % of control | T/C (dose: 100.0 mg/kg/injection, schedule: Q04DX003 (ip), vehicle: other): 178 % of control | T/C (dose: 108.0 mg/kg/injection, schedule: Q01DX001 (ip), vehicle: Klucel (hydroxypropylcellulose) (HPC)): 109 % of control | T/C (dose: 108.0 mg/kg/injection, schedule: Q01DX001 (sc), vehicle: Klucel (hydroxypropylcellulose) (HPC)): 110 % of control | T/C (dose: 108.0 mg/kg/injection, schedule: Q04DX003 (ip), vehicle: Klucel (hydroxypropylcellulose) (HPC)): 118 % of control | T/C (dose: 108.0 mg/kg/injection, schedule: Q04DX003 (sc), vehicle: Klucel (hydroxypropylcellulose) (HPC)): 96 % of control | T/C (dose: 120.0 mg/kg/injection, schedule: Q04DX003 (ip), vehicle: Klucel (hydroxypropylcellulose) (HPC)): 90 % of control | T/C (dose: 180.0 mg/kg/injection, schedule: Q01DX001 (ip), vehicle: Klucel (hydroxypropylcellulose) (HPC)): 108 % of control | T/C (dose: 180.0 mg/kg/injection, schedule: Q01DX001 (sc), vehicle: Klucel (hydroxypropylcellulose) (HPC)): 116 % of control | T/C (dose: 180.0 mg/kg/injection, schedule: Q04DX003 (ip), vehicle: Klucel (hydroxypropylcellulose) (HPC)): 98 % of control | T/C (dose: 200.0 mg/kg/injection, schedule: Q04DX003 (ip), vehicle: other): 97 % of control | T/C (dose: 300.0 mg/kg/injection, schedule: Q01DX001 (ip), vehicle: Klucel (hydroxypropylcellulose) (HPC)): 114 % of control | T/C (dose: 300.0 mg/kg/injection, schedule: Q01DX001 (sc), vehicle: Klucel (hydroxypropylcellulose) (HPC)): 118 % of control

N#CCCC(C#N)(CCC#N)c1ccc([N+](=O)[O-])cc1
T/C [1]: 92 % of control | T/C (dose: 100.0 mg/kg/injection, schedule: Q04DX003 (ip), vehicle: saline with Tween-80): 101 % of control | T/C [2]: 92 % of control | T/C (dose: 200.0 mg/kg/injection, schedule: Q04DX003 (ip), vehicle: saline with Tween-80): 100 % of control | T/C [3]: 92 % of control | T/C (dose: 400.0 mg/kg/injection, schedule: Q04DX003 (ip), vehicle: saline with Tween-80): 102 % of control

From PubChem BioAssay AID328 (DTP/NCI, 2004)
